{
  "source": "patent EP2269600A1",
  "about": "“Treatment of sleep disorders using eplivanserin in COPD patients” (Sanofi-Aventis, priority 2009, dated 2011)",
  "key": {"[1]": {"tested_on": "patients with chronic (primary) insomnia characterized by sleep maintenance difficulties", "test": "Phase 3 study EFC6220: polysomnography (PSG) recordings, 6 weeks, placebo-controlled", "assay_type": "in vivo", "source_text": "(§1) The Phase 3 program of development of eplivanserin in the treatment of patients with chronic (primary) insomnia characterized by sleep maintenance difficulties consisted of 3 randomized, double-blind (DB), placebo-controlled, efficacy and safety studies designed to assess the efficacy of eplivanserin on sleep maintenance either using polysomnography (PSG) recordings (6-week study EFC6220) or patient-reported outcome (12-week studies LTE6217 and LTE6262) collected daily on sleep questionnaires. They were all double-blind (DB), randomized, placebo-controlled studies. In all studies, treatment period was preceded by a one week, placebo run-in period, designed to check selection criteria for insomnia based on patient reported sleep parameters collected on the daily sleep questionnaires (Studies LTE6217, and LTE6262) or based on PSG recordings during two screening nights in a sleep laboratory (Study EFC6220). Treatment period was followed by a placebo run-out period of 2 weeks designed to assess the effect of abrupt treatment discontinuation. Study EFC6220 was designed to measure the pharmacodynamic activity of eplivanserin on sleep maintenance using PSG recordings in a sleep laboratory. Polysomnograms were recorded in standard conditions during 8 hours in bed. Studies LTE6217 and LTE6262 measured the efficacy of eplivanserin in real life conditions of use at home by collecting daily sleep parameters reported by patients through an Interactive Voice Response System (IVRS)."}, "[2]": {"tested_on": "patients with chronic (primary) insomnia characterized by sleep maintenance difficulties", "test": "Phase 3 studies LTE6217 and LTE6262: patient-reported sleep parameters, 12 weeks, placebo-controlled", "assay_type": "in vivo", "source_text": "as §1"}, "[3]": {"tested_on": "patients with mild to moderate COPD", "test": "COPD phase I study: overnight pulse oximetry (oxygen saturation)", "assay_type": "in vivo", "procedure": "(§2) The primary objective of this phase I study was to evaluate the pharmacodynamic (PD) effects of eplivanserin 15 mg single dose versus placebo (P) on respiratory function measured by mean overnight oxygen saturation (SaO2) in patients with mild to moderate COPD. Recorded PD parameters were: • Pulse oximetry continuously recorded overnight, with 02 saturation in %, • Pulmonary function tests (PFTs): spirometry [measuring forced vital capacity (FVC), forced expiratory volume (FEV), peak […] flow rate (PEFR), forced […] flow (FEF)] and plethysmography [evaluating airways resistance and conductance], • Capillary blood gases, • PSG with apnea /hypopnea episodes, sleep global sleep parameters and sleep architecture, • Leeds Sleep Evaluation Questionnaire (LSEQ) and Bond & Lader VAS. Safety and pharmacokinetic parameters were also assessed.\n(§3) The study was a single-centre, double-blind, randomized, 2-way crossover, placebo-controlled crossover study with 14 day washout: 15 mg single-dose of eplivanserin (E) vs. placebo (P). Included patients were displaying mild to moderate chronic obstructive pulmonary disease (COPD). The primary end-point was the pulmonary function (02 saturation over the entire night). 28 evaluable patients have been evaluated (COPD severity (FEV1) 50% mild / 50% moderate; Gender: 46.4% M, 53.6% F)"}, "[4]": {"tested_on": "patients with mild to moderate COPD", "test": "COPD phase I study: spirometry", "assay_type": "in vivo", "details": "Eplivanserin 15 mg single dose minus Placebo", "procedure": "as §2, §3"}, "[5]": {"tested_on": "patients with mild to moderate COPD", "test": "COPD phase I study: plethysmography", "assay_type": "in vivo", "procedure": "as §2, §3"}, "[6]": {"tested_on": "patients with mild to moderate COPD", "test": "COPD phase I study: capillary blood gases", "assay_type": "in vivo", "details": "15 mg single dose", "procedure": "as §2, §3"}, "[7]": {"tested_on": "patients with mild to moderate COPD", "test": "COPD phase I study: PSG (apnea/hypopnea episodes, sleep parameters)", "assay_type": "in vivo", "details": "15 mg single dose", "procedure": "as §2, §3"}, "[8]": {"tested_on": "patients with mild to moderate COPD", "test": "COPD phase I study: Leeds Sleep Evaluation Questionnaire and Bond & Lader VAS", "assay_type": "in vivo", "details": "15 mg single dose", "procedure": "as §2, §3"}, "[9]": {"tested_on": "patients with mild to moderate COPD", "test": "COPD phase I study: safety and tolerability", "assay_type": "in vivo", "details": "for safety / tolerability: 15 mg single dose, mild or moderate COPD", "procedure": "as §2, §3"}, "[10]": {"details": "cited from earlier work"}, "[11]": {"details": "5 mg/day, after 6 and 12 weeks of treatment"}},
  "data": [
    {"smiles": "CN(C)CCO/N=C(/C=C/c1ccc(O)cc1)c1ccccc1F", "note": "[Eplivanserin, (1Z, 2E)-1-(2-fluorophenyl)-3-(4-hydroxyphenyl)-prop-2-en-1-one-O-(2-dimethylaminoethyl)oxime]", "values": [
      {"measurement": "Stage 1", "setting": "[1]; 5 mg/day compared with placebo", "value": "decrease of Stage 1"},
      {"measurement": "percentage of time spent in sleep Stages 3&4 (SWS or deep sleep)", "setting": "[1]; 5 mg/day compared with placebo", "value": "increased"},
      {"measurement": "PSG-WASO", "setting": "[1]; Week 3 and Week 6, difference with placebo not statistically significant at Week 6", "value": "decreasing PSG-WASO at Week 3 and Week 6"},
      {"measurement": "number of brief awakenings (<1 min)", "setting": "[1]; compared to placebo", "value": "decreased"},
      {"measurement": "sleep onset (PSG-LPS and pr-SOL)", "setting": "[1]; eplivanserin 5 mg", "value": "did not affect sleep onset"},
      {"measurement": "PSG-NAW (LS mean)", "setting": "[1]; eplivanserin 5 mg, Week 3, p<0.0001", "value": -1.74},
      {"measurement": "pr-NAW", "setting": "[1]; eplivanserin 5 mg, Week 3 and Week 6", "value": "decrease of pr-NAW"},
      {"measurement": "PSG-NAW (LS mean)", "setting": "[1]; eplivanserin 5 mg, Week 6, p<0.0001", "value": -1.82},
      {"measurement": "QoS", "setting": "[1]; in vivo", "value": "improved"},
      {"measurement": "REM sleep", "setting": "[1]; in vivo", "value": "not affected"},
      {"measurement": "SWS/WASO + Stage 1 index", "setting": "[1]; in vivo", "value": "increase"},
      {"measurement": "effect on sleep maintenance (pr-WASO), onset and persistence", "setting": "[2]; 5 mg/day", "value": "observed from Day 1 and persisted up to 1 year of treatment"},
      {"measurement": "mean pr-NAW", "setting": "[2]; [11]", "value": "reducing"},
      {"measurement": "pr-TST", "setting": "[2]; [11]", "value": "increasing"},
      {"measurement": "pr-WASO", "setting": "[2]; [11]", "value": "consistently and significantly decreasing"},
      {"measurement": "Quality of Sleep and Refreshing Quality of Sleep", "setting": "[2]; after 6 and 12 weeks of treatment", "value": "improved"},
      {"measurement": "\"sleepiness in the morning\" and \"ability to concentrate\"", "setting": "[2]; compared with placebo, reported by insomniac patients", "value": "significantly favorable effect"},
      {"measurement": "sleep onset", "setting": "[2]; human, in vivo", "value": "did not affect sleep onset"},
      {"measurement": "potential for residual effects (next-day impairment)", "setting": "[2]; safety analyses", "value": "devoid of next-day impairment"},
      {"measurement": "SaO2 (%) during Time in bed, treatment difference LS mean", "setting": "[3]; Eplivanserin 15 mg single dose minus Placebo, P-value 0.2499", "value": -0.30, "unit": "%"},
      {"measurement": "Mean oxygen saturation over the entire night (mean ± SD)", "setting": "[3]; eplivanserin 15 mg single dose, finger pulse oximetry", "value": "93.4 % ± 1.66"},
      {"measurement": "SaO2 (%) during the sleep stages (stage 1, 2, SWS, REM, wake)", "setting": "[3]; single dose 15 mg vs placebo", "value": "no effect"},
      {"measurement": "Forced vital capacity, treatment difference LS mean", "setting": "[4]; P-value 0.1411", "value": -0.12, "unit": "L"},
      {"measurement": "Forced expiratory volume, treatment difference LS mean", "setting": "[4]; P-value 0.5289", "value": -0.03, "unit": "L"},
      {"measurement": "Peak expiratory flow, treatment difference LS mean", "setting": "[4]; P-value 0.6683", "value": -0.05, "unit": "L/S"},
      {"measurement": "airways resistance and conductance in each patient's subgroup (mild, moderate)", "setting": "[5]; 15 mg single dose vs placebo", "value": "no difference"},
      {"measurement": "Airways resistance, treatment difference LS mean", "setting": "[5]; Eplivanserin 15 mg single dose minus Placebo, P-value 0.4880", "value": 0.02, "unit": "KPa * s/l"},
      {"measurement": "Airways conductance, treatment difference LS mean", "setting": "[5]; Eplivanserin 15 mg single dose minus Placebo, P-value 0.6642", "value": "-0.01 1/KPa * s"},
      {"measurement": "Capillary blood gases (pH, oxygen partial pressure)", "setting": "[6]", "value": "minimally or unaffected"},
      {"measurement": "AHI (apnea hypopnea index)", "setting": "[7]", "value": "reduction"},
      {"measurement": "LPS (latency to persistent sleep)", "setting": "[7]", "value": "no change"},
      {"measurement": "TST (total sleep time)", "setting": "[7]", "value": "increase"},
      {"measurement": "WASO (waketime duration after sleep onset)", "setting": "[7]", "value": "reduction"},
      {"measurement": "number of awakenings after sleep onset", "setting": "[7]", "value": "reduction"},
      {"measurement": "LSEQ and Bond & Lader VAS post-treatment scores vs baseline", "setting": "[8]", "value": "minimally or unaffected"},
      {"measurement": "safety / tolerability", "setting": "[9]", "value": "well tolerated"},
      {"measurement": "safety / tolerability", "setting": "[9]; listed as eplivanserin", "value": "no safety concern"},
      {"measurement": "impairment of respiratory function (SaO2%, spirometry, body plethysmography)", "setting": "[9]; oral single dose 15 mg, in comparison with placebo", "value": "no impairment of respiratory function was observed"},
      {"measurement": "half-life time", "setting": "[10]; average value", "value": 50, "unit": "h"},
      {"measurement": "absorbed", "setting": "[10]; human, in vivo", "value": "> 70", "unit": "%"}
    ]}
  ]
}
